Nine compounds from patent US9617256B2 (priority 2007, dated 2017) can be followed below.

Experiment [1] relates to AECO001 (ATCC25922). As to the kind of experiment: MIC broth microdilution, AECO001. Format: cell-based, E. coli. To be noted: Escherichia coli, ATCC25922, read-out: MIC AECO001. The procedure, abridged: (§1)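 MICs come from broth microdilution in cation-adjusted Mueller-Hinton broth, final inoculum 3×10^5–7×10^5 CFU/mL, 18-24 hours at 35° C. Levofloxacin and QC strains served as assay controls.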

The subject of experiment [2] is APAE006 in the presence of 8 micrograms per milliliter of polymyxin B nonapeptide. Format: cell-based, P. aeruginosa. To be noted: in the presence of 8 micrograms per milliliter of polymyxin B nonapeptide. The method in brief: (§2)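 Strains were grown overnight at 35° C. on Mueller-Hinton agar, suspended to 0.5 McFarland and diluted to a final 3×10^5–7×10^5 CFU/mL. They were then exposed to 2-fold serial drug dilutions in cation-adjusted Mueller-Hinton broth and incubated 18-24 hours at 35° C.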

Experiment [3] deals with AECO063 (ATCC25922 bearing an acrAB mutation). As to the kind of experiment: microbe, parasite or virus in culture. Format: cell-based, E. coli. To be noted: Escherichia coli, ATCC25922, read-out: MIC AECO063. The method in brief:
as §1

Experiment [4] deals with APAE006 (strain of P. aeruginosa in which all efflux pumps are inactivated). In words: microbe, parasite or virus in culture. The following applies: Pseudomonas aeruginosa, read-out: MIC APAE006, P. aeruginosa, all efflux pumps inactivated. Format: cell-based. The method in brief:
as §2

The test system of experiment [5] is AECO001 HSA AGP. As to the kind of experiment: MIC broth microdilution, AECO001 HSA AGP. To be noted: Escherichia coli. Format: cell-based, E. coli. The method in brief: as §1
For orientation: Broth dilution looks for growth in wells or tubes with falling amounts of substance.

Experiment [6] has as its system AABA1060 (clinical isolate of Acinetobacter baumannii). As to the kind of experiment: MIC broth microdilution, AABA1060. Format: cell-based. The following applies: Acinetobacter baumannii, read-out: MIC AABA1060. The procedure, abridged:
as §1

For experiment [7], the system named is ASAU001 (laboratory strain of S. aureus, ATCC29213). As to the kind of experiment: MIC broth microdilution, ASAU001. Format: cell-based. To be noted: Staphylococcus aureus, ATCC29213, read-out: MIC ASAU001. The procedure, abridged: as §1
The test system of experiment [8] is APAE001 (ATCC27853). In words: MIC broth microdilution, APAE001. Format: cell-based, P. aeruginosa. The following applies: Pseudomonas aeruginosa, ATCC27853, read-out: MIC APAE001, APAE001 is ATCC27853. The method in brief:
as §1

≈ marks a conversion by molar mass, not a printed value.

Take `C[C@H](NCC(=O)NC[C@H](NC(=O)c1ccc(C#Cc2ccccc2)cc1)C(=O)NO)c1ccccc1` [Example 132-4]: the MIC was below 2 µg/mL in experiment [1]; below 2 µg/mL in experiment [3]; below 2 µg/mL in experiment [4]; 2 to 16 µg/mL (≈ 4.13 to 33 µM) in experiment [5]; 2 to 16 µg/mL (≈ 4.13 to 33 µM) in experiment [6]; 16 to 64 µg/mL (≈ 33 to 132 µM) in experiment [7]. For the same compound, the MIC in experiment [8] was in the range of 2 to 16 µg/mL (≈ 4.13 to 33 µM). The “MIC APAE006 + PMBN” value in experiment [2] was “A (MIC's of 2.0 μg/mL or less = A)”.
Regarding `C[C@H](N)[C@H](NC(=O)c1ccc(C#Cc2ccccc2)cc1)C(=O)NO` [Example 133-1, N-((1S,2S)-2-Amino-1-hydroxycarbamoyl-propyl)-4-phenylethynyl-benzamide], the MIC in experiment [1] was below 2 µg/mL; in experiment [3] it was below 2 µg/mL; in experiment [4], below 2 µg/mL; in experiment [5], 2 to 16 µg/mL (≈ 5.93 to 47.4 µM); in experiment [6], below 2 µg/mL; in experiment [7], 16 to 64 µg/mL (≈ 47.4 to 190 µM). The MIC in experiment [8] is below 2 µg/mL. For the same compound, the “MIC APAE006 + PMBN” value in experiment [2] is “A (MIC's of 2.0 μg/mL or less = A)”.
For `C[C@H](N)[C@H](NC(=O)c1ccc(C#Cc2ccc(CN3CCOCC3)cc2)cc1)C(=O)NO` [Example 133-2], the MIC in experiment [1] is below 2 µg/mL; in experiment [3], below 2 µg/mL; in experiment [4], below 2 µg/mL; in experiment [5], 16 to 64 µg/mL (≈ 36.7 to 147 µM); in experiment [6], 16 to 64 µg/mL (≈ 36.7 to 147 µM); in experiment [7], above 64 µg/mL. In addition, the MIC in experiment [8] is below 2 µg/mL. The “MIC APAE006 + PMBN” value in experiment [2] is on record as “A (MIC's of 2.0 μg/mL or less = A)”.
Consider `C[C@H](N)[C@H](NC(=O)c1ccc(C#Cc2ccc(CNC3CC3)cc2)cc1)C(=O)NO` [Example 133-3], for which the MIC in experiment [1] is below 2 µg/mL; in experiment [3] it was below 2 µg/mL; in experiment [4] it was below 2 µg/mL; in experiment [5] it was 2 to 16 µg/mL (≈ 4.92 to 39.4 µM); in experiment [6] it was 16 to 64 µg/mL (≈ 39.4 to 157 µM); in experiment [7], above 64 µg/mL. Moreover, the MIC in experiment [8] is below 2 µg/mL. Besides, in experiment [2], the “MIC APAE006 + PMBN” value was “A (MIC's of 2.0 μg/mL or less = A)”.
Regarding `C[C@H](N)[C@H](NC(=O)c1ccc(C#Cc2ccc(CO)cc2)cc1)C(=O)NO` [Example 133-4], the MIC is 2 to 16 µg/mL (≈ 5.44 to 43.5 µM) in experiment [1]; below 2 µg/mL in experiment [3]; below 2 µg/mL in experiment [4]; 16 to 64 µg/mL (≈ 43.5 to 174 µM) in experiment [5]; above 64 µg/mL in experiment [6]; above 64 µg/mL in experiment [7]. In experiment [8], the MIC was below 2 µg/mL. Also, the “MIC APAE006 + PMBN” value in experiment [2] was “A (MIC's of 2.0 μg/mL or less = A)”.
Take `C[C@@H](N)[C@H](NC(=O)c1ccc(C#Cc2cncnc2)cc1)C(=O)NO` [Example 133-7]: the MIC in experiment [1] is below 2 µg/mL; in experiment [3] it was below 2 µg/mL; in experiment [4] it was below 2 µg/mL; in experiment [5], 2 to 16 µg/mL (≈ 5.89 to 47.1 µM); in experiment [6] it was below 2 µg/mL; in experiment [7], 2 to 16 µg/mL (≈ 5.89 to 47.1 µM). For the same compound, in experiment [8], the MIC is below 2 µg/mL. For the same compound, the “MIC APAE006 + PMBN” value in experiment [2] was “A (MIC's of 2.0 μg/mL or less = A)”.
As for `C[C@@H](N)[C@H](NC(=O)c1ccc(C#Cc2ccncc2)cc1)C(=O)NO` [Example 133-8], the MIC in experiment [1] was 16 to 64 µg/mL (≈ 47.3 to 189 µM); in experiment [3], 2 to 16 µg/mL (≈ 5.91 to 47.3 µM); in experiment [4], below 2 µg/mL; in experiment [5], 16 to 64 µg/mL (≈ 47.3 to 189 µM); in experiment [6], 16 to 64 µg/mL (≈ 47.3 to 189 µM); in experiment [7], above 64 µg/mL. The MIC in experiment [8] fell in the range of 2 to 16 µg/mL (≈ 5.91 to 47.3 µM). Further, the “MIC APAE006 + PMBN” value in experiment [2] is “A (MIC's of 2.0 μg/mL or less = A)”.
On to `C[C@@H](N)[C@H](NC(=O)c1ccc(C#Cc2cccnc2)cc1)C(=O)NO` [Example 133-9], for which the MIC was 16 to 64 µg/mL (≈ 47.3 to 189 µM) in experiment [1]; 2 to 16 µg/mL (≈ 5.91 to 47.3 µM) in experiment [3]; below 2 µg/mL in experiment [4]; 16 to 64 µg/mL (≈ 47.3 to 189 µM) in experiment [5]; 16 to 64 µg/mL (≈ 47.3 to 189 µM) in experiment [6]; above 64 µg/mL in experiment [7]. The MIC in experiment [8] is 2 to 16 µg/mL (≈ 5.91 to 47.3 µM). Besides, the “MIC APAE006 + PMBN” value in experiment [2] is “A (MIC's of 2.0 μg/mL or less = A)”.
`C[C@@H](O)[C@H](NC(=O)c1ccc(C#Cc2ccc(C(F)(F)F)nc2)cc1)C(=O)NO` [Example 133-10]: the MIC in experiment [1] is 2 to 16 µg/mL (≈ 4.91 to 39.3 µM); in experiment [3], below 2 µg/mL; in experiment [4], below 2 µg/mL; in experiment [5], 2 to 16 µg/mL (≈ 4.91 to 39.3 µM); in experiment [6], 16 to 64 µg/mL (≈ 39.3 to 157 µM); in experiment [7] it was 16 to 64 µg/mL (≈ 39.3 to 157 µM). Further, the MIC in experiment [8] was in the range of 16 to 64 µg/mL (≈ 39.3 to 157 µM). For the same compound, in experiment [2], the “MIC APAE006 + PMBN” value is “A (MIC's of 2.0 μg/mL or less = A)”.
